Measurements published in ChEMBL document CHEMBL4184181, “Evaluation of alkylating pyrrole-imidazole polyamide conjugates by a novel method for high-throughput sequencer” (Bioorg Med Chem, 2018).
Calls of active or inactive are those of the source. The calls are words filed in the database; no cut-off is given here.

What was measured:
[1] = tested on: A549; test: Cytotoxicity against human A549 cells after 48 hrs by WST8 assay; format: functional, cell-based; conditions: A549, 48 h
[2] = organism: Bos taurus; test: Alkylating activity at ACCTCAA sequence of calf thymus DNA assessed as enrichment ratio by measuring ratio of sample to input control after 1 hr by MERMADE method; format: functional
[3] = organism: Bos taurus; test: Alkylating activity at ACCTCTA sequence of calf thymus DNA assessed as enrichment ratio by measuring ratio of sample to input control after 1 hr by MERMADE method; format: functional
[4] = organism: Bos taurus; test: Alkylating activity at ACCACTA sequence of calf thymus DNA assessed as enrichment ratio by measuring ratio of sample to input control after 1 hr by MERMADE method; format: functional
[5] = organism: Bos taurus; test: Alkylating activity at ATCACTA sequence of calf thymus DNA assessed as enrichment ratio by measuring ratio of sample to input control after 1 hr by MERMADE method; format: functional
[6] = organism: Bos taurus; test: Alkylating activity at CCTCTAG sequence of calf thymus DNA assessed as enrichment ratio by measuring ratio of sample to input control after 1 hr by MERMADE method; format: functional
[7] = organism: Bos taurus; test: Alkylating activity at TAGTGAA sequence of calf thymus DNA assessed as enrichment ratio by measuring ratio of sample to input control after 1 hr by MERMADE method; format: functional
[8] = organism: Bos taurus; test: Alkylating activity at CCACTAG sequence of calf thymus DNA assessed as enrichment ratio by measuring ratio of sample to input control after 1 hr by MERMADE method; format: functional
[9] = organism: Bos taurus; test: Alkylating activity at ACTAGTG sequence of calf thymus DNA assessed as enrichment ratio by measuring ratio of sample to input control after 1 hr by MERMADE method; format: functional
[10] = organism: Bos taurus; test: Alkylating activity at CTAGTGA sequence of calf thymus DNA assessed as enrichment ratio by measuring ratio of sample to input control after 1 hr by MERMADE method; format: functional
[11] = organism: Bos taurus; test: Alkylating activity at CCTCTAA sequence of calf thymus DNA assessed as enrichment ratio by measuring ratio of sample to input control after 1 hr by MERMADE method; format: functional
[12] = organism: Bos taurus; test: Alkylating activity at CTCTAGA sequence of calf thymus DNA assessed as enrichment ratio by measuring ratio of sample to input control after 1 hr by MERMADE method; format: functional
[13] = organism: Bos taurus; test: Alkylating activity at CACTAGA sequence of calf thymus DNA assessed as enrichment ratio by measuring ratio of sample to input control after 1 hr by MERMADE method; format: functional
[14] = organism: Bos taurus; test: Alkylating activity at TACACTA sequence of calf thymus DNA assessed as enrichment ratio by measuring ratio of sample to input control after 1 hr by MERMADE method; format: functional
[15] = organism: Bos taurus; test: Alkylating activity at TCACTAA sequence of calf thymus DNA assessed as enrichment ratio by measuring ratio of sample to input control after 1 hr by MERMADE method; format: functional
[16] = organism: Bos taurus; test: Alkylating activity at ATCTCTA sequence of calf thymus DNA assessed as enrichment ratio by measuring ratio of sample to input control after 1 hr by MERMADE method; format: functional
[17] = organism: Bos taurus; test: Alkylating activity at AGTGGTA sequence of calf thymus DNA assessed as enrichment ratio by measuring ratio of sample to input control after 1 hr by MERMADE method; format: functional
[18] = organism: Bos taurus; test: Alkylating activity at CCTCTAC sequence of calf thymus DNA assessed as enrichment ratio by measuring ratio of sample to input control after 1 hr by MERMADE method; format: functional
[19] = organism: Bos taurus; test: Alkylating activity at ACCATTA sequence of calf thymus DNA assessed as enrichment ratio by measuring ratio of sample to input control after 1 hr by MERMADE method; format: functional
[20] = organism: Bos taurus; test: Alkylating activity at CCTCAAG sequence of calf thymus DNA assessed as enrichment ratio by measuring ratio of sample to input control after 1 hr by MERMADE method; format: functional
[21] = organism: Bos taurus; test: Alkylating activity at CCACTAA sequence of calf thymus DNA assessed as enrichment ratio by measuring ratio of sample to input control after 1 hr by MERMADE method; format: functional
[22] = organism: Bos taurus; test: Alkylating activity at calf thymus DNA containing adenine at seventh position of motif by MR method; format: functional
[23] = organism: Bos taurus; test: Alkylating activity at ACCTCAC sequence of calf thymus DNA assessed as enrichment ratio by measuring ratio of sample to input control after 1 hr by MERMADE method; format: functional
[24] = organism: Bos taurus; test: Alkylating activity at CCTCACC sequence of calf thymus DNA assessed as enrichment ratio by measuring ratio of sample to input control after 1 hr by MERMADE method; format: functional
[25] = organism: Bos taurus; test: Alkylating activity at TACCTCA sequence of calf thymus DNA assessed as enrichment ratio by measuring ratio of sample to input control after 1 hr by MERMADE method; format: functional
[26] = organism: Bos taurus; test: Alkylating activity at CACCTCA sequence of calf thymus DNA assessed as enrichment ratio by measuring ratio of sample to input control after 1 hr by MERMADE method; format: functional
[27] = organism: Bos taurus; test: Alkylating activity at CCACCTC sequence of calf thymus DNA assessed as enrichment ratio by measuring ratio of sample to input control after 1 hr by MERMADE method; format: functional
[28] = organism: Bos taurus; test: Alkylating activity at AGGTGAG sequence of calf thymus DNA assessed as enrichment ratio by measuring ratio of sample to input control after 1 hr by MERMADE method; format: functional
[29] = organism: Bos taurus; test: Alkylating activity at GAGGTTA sequence of calf thymus DNA assessed as enrichment ratio by measuring ratio of sample to input control after 1 hr by MERMADE method; format: functional
[30] = organism: Bos taurus; test: Alkylating activity at ACCTCAT sequence of calf thymus DNA assessed as enrichment ratio by measuring ratio of sample to input control after 1 hr by MERMADE method; format: functional
[31] = organism: Bos taurus; test: Alkylating activity at CTACCTC sequence of calf thymus DNA assessed as enrichment ratio by measuring ratio of sample to input control after 1 hr by MERMADE method; format: functional
[32] = organism: Bos taurus; test: Alkylating activity at GAGGTGA sequence of calf thymus DNA assessed as enrichment ratio by measuring ratio of sample to input control after 1 hr by MERMADE method; format: functional
[33] = organism: Bos taurus; test: Alkylating activity at GGTGAGA sequence of calf thymus DNA assessed as enrichment ratio by measuring ratio of sample to input control after 1 hr by MERMADE method; format: functional
[34] = organism: Bos taurus; test: Alkylating activity at CTCCACC sequence of calf thymus DNA assessed as enrichment ratio by measuring ratio of sample to input control after 1 hr by MERMADE method; format: functional
[35] = organism: Bos taurus; test: Alkylating activity at ACCTCAG sequence of calf thymus DNA assessed as enrichment ratio by measuring ratio of sample to input control after 1 hr by MERMADE method; format: functional
[36] = organism: Bos taurus; test: Alkylating activity at CCACTCC sequence of calf thymus DNA assessed as enrichment ratio by measuring ratio of sample to input control after 1 hr by MERMADE method; format: functional
[37] = organism: Bos taurus; test: Alkylating activity at ATACCTC sequence of calf thymus DNA assessed as enrichment ratio by measuring ratio of sample to input control after 1 hr by MERMADE method; format: functional
[38] = organism: Bos taurus; test: Alkylating activity at GTGAGGA sequence of calf thymus DNA assessed as enrichment ratio by measuring ratio of sample to input control after 1 hr by MERMADE method; format: functional
[39] = organism: Bos taurus; test: Alkylating activity at CGACCTC sequence of calf thymus DNA assessed as enrichment ratio by measuring ratio of sample to input control after 1 hr by MERMADE method; format: functional
[40] = organism: Bos taurus; test: Alkylating activity at ACTCCTC sequence of calf thymus DNA assessed as enrichment ratio by measuring ratio of sample to input control after 1 hr by MERMADE method; format: functional

## CC(=O)Nc1cn(C)c(C(=O)Nc2cn(C)c(C(=O)Nc3cn(C)c(C(=O)Nc4cn(C)c(C(=O)NCC[C@@H](NC(=O)OC(C)(C)C)C(=O)Nc5ccc(C(=O)Nc6cn(C)cc6C(=O)Nc6ccc7[nH]c(C(=O)N8CC(CCl)c9c8cc(O)c8ccccc98)cc7c6)n5C)n4)n3)n2)n1 (stereo partly drawn)
[1]
  IC50: 120 nM

## CC(=O)Nc1cn(C)c(C(=O)Nc2cn(C)c(C(=O)Nc3cn(C)c(C(=O)Nc4cn(C)c(C(=O)NCC[C@@H](NC(=O)CCOCCOCCOCCOCCOCCOCCOCCOCCOCCOCCOCCOCCNC(=O)CCCC[C@@H]5SC[C@@H]6NC(=O)N[C@@H]65)C(=O)Nc5ccc(C(=O)Nc6cn(C)cc6C(=O)Nc6cn(C)cc6C(=O)Nc6ccc7[nH]c(C(=O)N8CC(CCl)c9c8cc(O)c8ccccc98)cc7c6)n5C)n4)n3)n2)n1 (stereo partly drawn)
[2]
  Ratio: 4.19
[3]
  Ratio: 6.96
[4]
  Ratio: 5.11
[5]
  Ratio: 4.94
[6]
  Ratio: 4.45
[7]
  Ratio: 4.34
[8]
  Ratio: 4.13
[9]
  Ratio: 3.82
[10]
  Ratio: 3.82
[11]
  Ratio: 3.79
[12]
  Ratio: 3.68
[13]
  Ratio: 3.64
[14]
  Ratio: 3.63
[15]
  Ratio: 3.61
[16]
  Ratio: 3.46
[17]
  Ratio: 3.37
[18]
  Ratio: 3.33
[19]
  Ratio: 3.28
[20]
  Ratio: 3.19
[21]
  Ratio: 3.16
[22]
  Activity: Active

## CC(=O)Nc1cn(C)c(C(=O)Nc2cn(C)c(C(=O)Nc3cn(C)c(C(=O)Nc4cn(C)c(C(=O)NCC[C@@H](NC(=O)OC(C)(C)C)C(=O)Nc5ccc(C(=O)Nc6cn(C)cc6C(=O)Nc6cn(C)cc6C(=O)Nc6ccc7[nH]c(C(=O)N8CC(CCl)c9c8cc(O)c8ccccc98)cc7c6)n5C)n4)n3)n2)n1 (stereo partly drawn)
[1]
  IC50: 63 nM

## CC(=O)Nc1cn(C)c(C(=O)Nc2cn(C)c(C(=O)Nc3cn(C)c(C(=O)Nc4cn(C)c(C(=O)NCC[C@@H](NC(=O)CCOCCOCCOCCOCCOCCOCCOCCOCCOCCOCCOCCOCCNC(=O)CCCC[C@@H]5SC[C@@H]6NC(=O)N[C@@H]65)C(=O)Nc5ccc(C(=O)Nc6cn(C)cc6C(=O)Nc6ccc7[nH]c(C(=O)N8CC(CCl)c9c8cc(O)c8ccccc98)cc7c6)n5C)n4)n3)n2)n1 (stereo partly drawn)
[23]
  Ratio: 2.69
[24]
  Ratio: 2.65
[25]
  Ratio: 2.48
[26]
  Ratio: 2.44
[27]
  Ratio: 2.4
[28]
  Ratio: 2.24
[29]
  Ratio: 2.21
[30]
  Ratio: 2.17
[31]
  Ratio: 2.12
[2]
  Ratio: 2.07
[32]
  Ratio: 2.06
[33]
  Ratio: 2.06
[34]
  Ratio: 2.06
[35]
  Ratio: 2.05
[36]
  Ratio: 2.04
[37]
  Ratio: 2.02
[38]
  Ratio: 2.02
[3]
  Ratio: 2.01
[39]
  Ratio: 2
[40]
  Ratio: 2
